Assay results: patent publication US3954985A, “Method for inhibiting bacterial growth with certain selected 3-chloro-tetrahydro-1,3-oxazines or oxazolidines” (INTERx Research Corporation, priority 1975, dated 1976)
Where “and” joins values, the source holds several entries; their conditions need not be identical. Equal entries are not always repeated. Structures can show the parent of a compound that is named as a salt.

What was measured:
[1] = Stability in the neat state at 40°C (positive chlorine by thiosulfate titration); format: physicochemical; conditions: HYDROCHLORIDE
Description: ^a Weight of sample analyzed.
^b Volume of 10^^-2 N sodium thiosulfate required to titrate
the sample at time (T).
^c Percentage of positive chlorine in the sample analyzed.

[2] = test system: Pseud. aeruginosa ATCC 9027; test: Bactericidal endpoint (time for complete sterilization), ATCC 9027; format: cell-based; conditions: for Antibacterial activity, time, 9027: 0.5 M NaH2PO4 pH 7.0
Description: (§1) The procedure employed to determine the antibacterial activity of 3-chloro-2,2,4,4-tetramethyl-tetrahydro1,3-oxazolidine and 3-chloro-2,2-[spiro-1'-methyl-4'-piperidinyl]-4,4-dimethyl-1,3-oxazolidinewas based primarily on a modification of the serial dilution method of analysis. However, instead of determining the minimum inhibitory concentration parameters for the compound investigated, applicants alternatively chose to determine the bactericidal endpoint for a given concentration of the compound investigated. Consequently, applicants' studies were established to determine the time required for complete sterilization of the micro-organism tested, when exposed to a given concentration of the compound investigated.
(§2) A stock solution of each compound identified above was prepared using an appropriate buffered solution.
(§3) For screening in the absence of a denaturing agent (e.g., horse serum) an equal volume of distilled water and the resulting solution was subjected to the screen.
(§4) For screening in the presence of a denaturing agent, a volume of the stock solution was diluted using an equal volume of 10% horse serum. When necessary, the final solution was adjusted to the desired pH using 1N HCl and the solution was permitted to stand at room temperature for thirty minutes prior to the screening procedure.
(§5) To 5 ml of the stock solution being evaluated, there was added 0.2 ml of an overnight broth culture containing the particular micro-organism being investigated (see above). At time intervals of 0.5, 1, 2, 3, 4, 5, . . . minutes, a loop of this suspension was subcultured into 5 ml of a sterile nutrient broth. All the samples were then incubated at 37°C for seven days with daily observation for evidence of bacterial growth. The time interval reported is for that sample in which no bacterial growth was observed after the incubation period.

[3] = test system: Kleb. pneumoniae ATCC 10031; test: Bactericidal endpoint (time for complete sterilization), ATCC 10031; format: cell-based
Description: as §1, §2, §3, §4, §5

Staph. aureus ATCC 6538 = test: Bactericidal endpoint (time for complete sterilization), ATCC 6538; format: cell-based
Description: as §1, §2, §3, §4, §5

[4] = test system: Bord. bronchiseptica ATCC 4617; test: Bactericidal endpoint (time for complete sterilization), ATCC 4617; format: cell-based
Description: as §1, §2, §3, §4, §5

[5] = Stability analysis in buffered solution (half-life); format: physicochemical
E. coli ATCC 10536 = test: Bactericidal endpoint (time for complete sterilization), ATCC 10536; format: cell-based
Description: as §1, §2, §3, §4, §5

[6] = test system: Staph. epidermidis ATCC 12228; test: Bactericidal endpoint (time for complete sterilization), ATCC 12228; format: cell-based
Description: as §1, §2, §3, §4, §5

6501 = test: Bactericidal endpoint (time for complete sterilization), 6501; format: cell-based
Description: as §1, §2, §3, §4, §5

[7] = 0.1M Na2B4O7 pH 8.8, H2O, 8.13 × 10^-3 M (1333 ppm)
[8] = 0.1M Na2B4O7 pH 8.8, Serum, 8.13 × 10^-3 M (1333 ppm)
[9] = 0.1M NaH2PO4 pH 7.00, H2O, 8.92 × 10^-3 M (1463 ppm)
[10] = 0.1M NaH2PO4 pH 7.00, Serum, 8.92 × 10^-3 M (1463 ppm)
[11] = 0.1M NaOAc pH 4.6, H2O, 8.26 × 10^-3 M (1355 ppm)
[12] = 0.1M NaOAc pH 4.6, Serum, 8.26 × 10^-3 M (1355 ppm)
[13] = 0.1 M NaOAc pH 4.6, H2O, 6.52 × 10^-3 M (1428 ppm)
[14] = 0.1 M NaOAc pH 4.6, Serum, 5.69 × 10^-3 M (1246 ppm)
[15] = 0.5 M NaOAc pH 4.6, H2O, 21.00 × 10^-3 M (4578 ppm)
[16] = 0.5 M NaOAc pH 4.6, Serum, 20.50 × 10^-3 M (4469 ppm)
[17] = 0.5 M NaH2PO4 pH 7.0, H2O, 20.75 × 10^-3 M (4525 ppm)
[18] = 0.5 M NaH2PO4 pH 7.0, Serum, 19.88 × 10^-3 M (4334 ppm)

CN1CCC2(CC1)OCC(C)(C)N2Cl [3-CHLORO-2,2-[SPIRO-1'-METHYL-4'-PIPERIDINIUM]4,4-DIMETHYL-1,3-OXAZOLIDINE HYDROCHLORIDE]
%Cl (percentage of positive chlorine in the sample analyzed) ([1]; 0 days): 13.7% and 13.1% | %Cl (percentage of positive chlorine in the sample analyzed) ([1]; 1 day): 12.3% and 12.5% | %Cl (percentage of positive chlorine in the sample analyzed) ([1]; 2 days): 12.3% and 11.9% | %Cl (percentage of positive chlorine in the sample analyzed) ([1]; 3 days): 12.5% and 12.2% | %Cl (percentage of positive chlorine in the sample analyzed) ([1]; 4 days): 12.1% and 12.3% | %Cl (percentage of positive chlorine in the sample analyzed) ([1]; 5 days): 12.3% and 12.4% | %Cl (percentage of positive chlorine in the sample analyzed) ([1]; 7 days): 12.2% and 12.1% | %Cl (percentage of positive chlorine in the sample analyzed) ([1]; 10 days): 11.9% and 11.8% | %Cl (percentage of positive chlorine in the sample analyzed) ([1]; 14 days): 12.1% and 11.8% | %Cl (percentage of positive chlorine in the sample analyzed) ([1]; 21 days): 12.0% and 12.1% | %Cl (percentage of positive chlorine in the sample analyzed) ([1]; 28 days): 11.5% and 11.6% | %Cl (percentage of positive chlorine in the sample analyzed) ([1]; 35 days): 11.8% and 11.6% | %Cl (percentage of positive chlorine in the sample analyzed) ([1]; 51 days): 9.5%

CC1(C)COC(C)(C)N1Cl [3-chloro-2,2,4,4-tetramethyl-tetrahydro-1,3-oxazolidine]
Germicidal activity time, 9027 [2, 7]: 2 min | Germicidal activity time, 9027 [2, 8]: 4 min | Germicidal activity time, 9027 [2, 9]: 1 min | Germicidal activity time, 9027 [2, 10]: 7 min | Germicidal activity time, 9027 [2, 11]: 0.5 min | Germicidal activity time, 9027 [2, 12]: 4 min | Germicidal activity time, 10031 [3, 7]: 4 min | Germicidal activity time, 10031 [3, 8]: 9 min | Germicidal activity time, 10031 [3, 9]: 0.5 min | Germicidal activity time, 10031 [3, 10]: 5 min | Germicidal activity time, 10031 [3, 11]: 0.5 min | Germicidal activity time, 10031 [3, 12]: > 10 min | Germicidal activity time, 6538 (Staph. aureus ATCC 6538; [7]): > 5 min | Germicidal activity time, 6538 (Staph. aureus ATCC 6538; [8]): > 10 min | Germicidal activity time, 6538 (Staph. aureus ATCC 6538; [9]): 3 min | Germicidal activity time, 6538 (Staph. aureus ATCC 6538; [10]): > 10 min | Germicidal activity time, 6538 (Staph. aureus ATCC 6538; [11]): 0.5 min | Germicidal activity time, 6538 (Staph. aureus ATCC 6538; [12]): > 10 min | Germicidal activity time, 4617 [4, 7]: 3 min | Germicidal activity time, 4617 [4, 8]: 8 min | Germicidal activity time, 4617 [4, 9]: 1 min | Germicidal activity time, 4617 [4, 10]: > 10 min | Germicidal activity time, 4617 [4, 11]: 0.5 min | Germicidal activity time, 4617 [4, 12]: 6 min | half-life at 1520 µM ([5]; 0.1 M Na2B4O7 pH 9.3, 40 °C, initial concentration 1.52 × 10^-3 M): ~5 h | half-life at 2490 µM ([5]; 0.1 M Na2B4O7 pH 9.3, 40 °C, initial concentration 2.49 × 10^-3 M): ~4.6 h | half-life at 5980 µM ([5]; 0.1 M Na2B4O7 pH 9.3, 40 °C, initial concentration 5.98 × 10^-3 M): ~3.3 h | half-life at 1680 µM ([5]; 0.1 M NaH2PO4 pH 7.0, 40 °C, initial concentration 1.68 × 10^-3 M): ~70 h | half-life at 3050 µM ([5]; 0.1 M NaH2PO4 pH 7.0, 40 °C, initial concentration 3.05 × 10^-3 M): ~54 h | half-life at 6700 µM ([5]; 0.1 M NaH2PO4 pH 7.0, 40 °C, initial concentration 6.70 × 10^-3 M): ~54 h | half-life at 1880 µM ([5]; 0.1 M NaOAc pH 4.6, 40 °C, initial concentration 1.88 × 10^-3 M): 2.2 h | half-life at 2590 µM ([5]; 0.1 M NaOAc pH 4.6, 40 °C, initial concentration 2.59 × 10^-3 M): 2.2 h | half-life at 5470 µM ([5]; 0.1 M NaOAc pH 4.6, 40 °C, initial concentration 5.47 × 10^-3 M): 2.6 h | half-life at 6230 µM ([5]; H2O, initial concentration 6.23 × 10^-3 M): ~58 h | Germicidal activity time, 10536 (E. coli ATCC 10536; [7]): 2 min | Germicidal activity time, 10536 (E. coli ATCC 10536; [8]): 4 min | Germicidal activity time, 10536 (E. coli ATCC 10536; [9]): 0.5 min | Germicidal activity time, 10536 (E. coli ATCC 10536; [10]): 3 min | Germicidal activity time, 10536 (E. coli ATCC 10536; [11]): 0.5 min | Germicidal activity time, 10536 (E. coli ATCC 10536; [12]): 3 min | Germicidal activity time, 12228 [6, 7]: > 5 min | Germicidal activity time, 12228 [6, 8]: > 10 min | Germicidal activity time, 12228 [6, 9]: 1 min | Germicidal activity time, 12228 [6, 10]: 6 min | Germicidal activity time, 12228 [6, 11]: 0.5 min | Germicidal activity time, 12228 [6, 12]: > 10 min

CN1CCC2(CC1)OCC(C)(C)N2Cl [3-chloro-2,2-[spiro-1'-methyl-4'-piperidinyl]-4,4-dimethyl-1,3-oxazolidine]
Antibacterial activity, time, 9025 [2, 13]: 0.5 min | Antibacterial activity, time, 9025 [2, 14]: > 10 min | Antibacterial activity, time, 9027 ([2]; H2O, 20.75 × 10^-3 M (4525 ppm)): 1 min | Antibacterial activity, time, 9027 ([2]; Serum, 19.88 × 10^-3 M (4334 ppm)): 10 min | Antibacterial activity, time, 9025 [2, 15]: 0.5 min | Antibacterial activity, time, 9025 [2, 16]: 1 min | Antibacterial activity, time, 10031 [3, 13]: 0.5 min | Antibacterial activity, time, 10031 [3, 14]: 7 min | Antibacterial activity, time, 10031 [3, 17]: 1 min | Antibacterial activity, time, 10031 [3, 18]: 8 min | Antibacterial activity, time, 10031 [3, 15]: 0.5 min | Antibacterial activity, time, 10031 [3, 16]: 0.5 min | Antibacterial activity, time, 6538 (Staph. aureus ATCC 6538; [13]): 5 min | Antibacterial activity, time, 6538 (Staph. aureus ATCC 6538; [14]): > 10 min | Antibacterial activity, time, 6538 (Staph. aureus ATCC 6538; [17]): 1 min | Antibacterial activity, time, 6538 (Staph. aureus ATCC 6538; [18]): > 10 min | Antibacterial activity, time, 6538 (Staph. aureus ATCC 6538; [15]): 0.5 min | Antibacterial activity, time, 6538 (Staph. aureus ATCC 6538; [16]): 3 min | Antibacterial activity, time, 4617 [4, 17]: 0.5 min | Antibacterial activity, time, 4617 [4, 18]: 5 min | Antibacterial activity, time, 4617 [4, 15]: 0.5 min | Antibacterial activity, time, 4617 [4, 16]: 1 min | Antibacterial activity, time, 6501 6501; [13]: 0.5 min | Antibacterial activity, time, 6501 6501; [14]: 3 min | Antibacterial activity, time, 6501 6501; [17]: 1 min | Antibacterial activity, time, 6501 6501; [18]: 7 min | Antibacterial activity, time, 6501 6501; [15]: 0.5 min | Antibacterial activity, time, 6501 6501; [16]: 0.5 min | Antibacterial activity, time, 10536 (E. coli ATCC 10536; [13]): 0.5 min | Antibacterial activity, time, 10536 (E. coli ATCC 10536; [14]): 2 min | Antibacterial activity, time, 10536 (E. coli ATCC 10536; [17]): 0.5 min | Antibacterial activity, time, 10536 (E. coli ATCC 10536; [18]): 7 min | Antibacterial activity, time, 10536 (E. coli ATCC 10536; [15]): 0.5 min | Antibacterial activity, time, 10536 (E. coli ATCC 10536; [16]): 0.5 min | Antibacterial activity, time, 12228 [6, 13]: 1 min | Antibacterial activity, time, 12228 [6, 14]: > 10 min | Antibacterial activity, time, 12228 [6, 17]: 1 min | Antibacterial activity, time, 12228 [6, 18]: 5 min | Antibacterial activity, time, 12228 [6, 15]: 0.5 min | Antibacterial activity, time, 12228 [6, 16]: 2 min
